Assay results from US20240075004A1, “VERY-LONG-CHAIN POLYUNSATURATED FATTY ACIDS, ELOVANOID HYDROXYLATED DERIVATIVES, AND METHODS OF USE” (The Board of Supervisors of Louisiana State University and …, priority 2020, published 2024).

Columns and labels:
[1] = system: RPE and PRC; assay: Subretinal injection of OAβ in WT mice: fundus/OCT and ZO-1 whole flat mount of RPE; type: in vivo, C57BL/6J WT mice; details: for PRC degeneration (fundus, OCT): ELV injected alone (200 ng subretinal), six-month-old WT mice, 7 days; for RPE morphology (ZO-1 flat mount) / protection of PRC (OCT, PRC layer thickness): co-injected with OAβ, followed by topical application during 7 days
Procedure: All animal experiments were performed according to ARVO Statement for the Use of Animals in Ophthalmic and Vision Research, and the protocol was approved by LSU Health New Orleans' Institutional Animal Care and Use Committee (IACUC). 6-month-old 5×FAD mice (stock number: 34848-JAX, The Jackson Laboratory, Bar Harbor, ME, USA), co-overexpress FAD mutant forms of human amyloid precursor protein (the Swedish mutation: K670N, M671L; the Florida mutation: I716V; and the London mutation: V7171) and presenilin 1 (PS1, encoded by Psen1: M146L, L286V) transgenes under transcriptional control of the neuron-specific mouse Thy1 promoter. 5×FAD mice were hemizygotes with respect to the transgenes and non-transgenic WT littermates. Genotyping was performed by PCR of tail DNA. All analyses were carried out blind with respect to the mice genotype. For the subretinal injection, 6-month-old C57BL/6J mice were anesthetized by an intraperitoneal injection of ketamine/xylazine, pupils dilated with 1.0% tropicamide (Akorn, IL, USA); and 0.5% Proparacaine Hydrochloride (Akorn) was applied for topical anesthesia. Eyes were punctured with a 30-gauge needle between the corneoscleral junction and the ora serrata into the vitreous cavity without disturbing the lens. Compounds were delivered to the subretinal region using a 33-gauge blunt needle attached to a 5 μl Hamilton syringe (Hamilton Company, Reno, NV, USA) under a dissecting microscope. Non-injected mice were used as negative control while the PBS injected mice were used for sham. The injection volume was 2 μl containing PBS, 10 μM of OAβ, 10 μM of OAβ+200 ng ELV-N-32, 200 ng ELV-N-32 alone, 10 μM of OAβ+200 ng ELV-N-34 or 200 ng ELV-N-34 alone (n=12/group). All groups received topical drops: PBS only or ELV-N-32 (200 nM) or ELV-N-34 (200 nM), twice a day for 3 or 7 days.
For the whole mount RPE staining, eyeballs were enucleated and pre-fixed in 4% PFA for 15 min. Then the eye cup containing RPE sheet were fixed in 4% PFA for 30 min, washed in PBS 3× following the blocking step for 1 h at room temperature. The immunostaining was performed by incubating primary antibody (ZO-1) for 48 h at 4° C. Then the eye cups were washed 3× with PBS and incubated with the secondary antibody for 12 h at 4° C. The primary human RPE cells as well as mouse eye cups were embedded in ProLong™ Gold Antifade Mounting medium (Thermo Fisher Scientific) between two glass coverslips. Pictures were taken with Olympus FV1200 microscope (Olympus, Japan). Images were analyzed by software ImageJ (rsb.info.nih.gov/ij/).
7 days post-injection, mice were anesthetized with ip ketamine/xylazine, pupil dilated by topical 1.0% tropicamide and placed in a custom-built holder for OCT imaging (body temperature maintained at 38° C. with a heat pad). Retinas were imaged along the horizontal meridian through the optic nerve head using a Heidelberg Spectralis HRA OCT system (Heidelberg Engineering, Heidelberg, Germany). Axial resolution is […]. The raw OCT B-scans cross-sectional images were exported with the scale in m and opened in ImageJ (http//imagej.nih.gov/ij). The PRC layer thickness was defined as the width from the tip of the outer nuclear layer, right after the outer plexiform layer, to the outer segments of PRC. Three measurements were made on the same scan and averaged. Mean and standard error of the mean (SEM) were calculated (n=4/group). Students' T-test was used to calculate statistical significance and a P-value less than 0.05 was considered significant.

[2] = system: senescence, autophagy, AMD, ECM remodeling and apoptosis genes; assay: RPE and retina gene expression (qPCR) after subretinal OAβ (1-42) injection; type: in vivo, C57BL/6J WT mice; details: OAβ subretinally administered in WT mice
Procedure: All animal experiments were performed according to ARVO Statement for the Use of Animals in Ophthalmic and Vision Research, and the protocol was approved by LSU Health New Orleans' Institutional Animal Care and Use Committee (IACUC). 6-month-old 5×FAD mice (stock number: 34848-JAX, The Jackson Laboratory, Bar Harbor, ME, USA), co-overexpress FAD mutant forms of human amyloid precursor protein (the Swedish mutation: K670N, M671L; the Florida mutation: I716V; and the London mutation: V7171) and presenilin 1 (PS1, encoded by Psen1: M146L, L286V) transgenes under transcriptional control of the neuron-specific mouse Thy1 promoter. 5×FAD mice were hemizygotes with respect to the transgenes and non-transgenic WT littermates. Genotyping was performed by PCR of tail DNA. All analyses were carried out blind with respect to the mice genotype. […]
For the in vivo experiments, eyeballs were enucleated and anterior segment containing the cornea, lens and iris removed and the retina separated from the rest of the eyecup (RPE/choroid). […] Quantitative PCR was performed in a CFX-384 Real-Time PCR system (Bio-Rad). The expression of target genes was normalized to the geometric mean of housekeeping genes and relative expression was calculated by the comparative threshold cycle method (ΔΔCT).

[3] = system: primary human RPE cells; assay: Primary human RPE cells challenged with OAβ: SA-β-Gal staining and qPCR; type: cell-based; details: 10 μM OAβ; qPCR after 3 days, SA-β-Gal after 7 days
Procedure: All experiments with primary human RPE cells were approved by the Institutional Review Board of LSUHNO and conducted in accordance with NIH guidelines. Cells were collected from anonymous donors provided by eye banks. Briefly, globes of a person, without eye pathology were obtained from NDRI within 24 hours after death from head trauma. Globes were opened, and RPE cells harvested and cultured (1, 2) and grown in MEM medium supplemented with 10% FBS, 5% NCS, non-essential amino acids, Penicillin-Streptomycin (100 U/mL), human fibroblast growth factor 10 ng/ml and incubated at 37° C. with a constant supply of 5% CO2. Cells integrity was validated as in previous study (3). For oligomeric Aβ treatment, cells were seeded in the 6-well plates, 30.000 cells/cm2. After 2 days, sub-confluent cells were treated with 10 μM OAβ or with PBS (vehicle control).
Aβ (1-42) (HFIP-treated, ANASPEC Company, Fremont, CA, USA, Cat AS-64129) was resuspended by adding 1% NH4OH/Water and DMSO to obtain a concentration 500 μM and sonicated for 10 min. […]
Cells were visualized using SA-β-Gal staining kit (Cat 9860, Cell Signaling Technology, MA, USA). […] Pictures were taken under brightfield microscope (Nikon Eclipse TS100) 200× magnification after the development of blue color, and cells counted in 10 different random fields per well. […]

SMILES	PRC degeneration (fundus, OCT) [1]	RPE morphology (ZO-1 flat mount) [1]	protection of PRC (OCT, PRC layer thickness) [1]	OAβ-activated senescence program (p16INK4a, MMP1, p53, p21, p27, Il-6 gene expression, SASP secretome) followed by RPE and PRC demise [2]	OAβ-altered RPE cell morphology, SASP (SA-β-Gal staining) and expression of senescence, AMD, matrix metalloproteinase and autophagy-related genes [3]
CC/C=C\C[C@H](O)\C=C/C=C/C=C/[C@H](O)C/C=C\C/C=C\CCCCCCCCCCCCC(=O)O [ELV-N-32]	did not yield PRC degeneration	restoration of RPE morphology	protection of PRC	blunt these events and elicit protection to both cells	reverted these effects
CC/C=C\C[C@H](O)\C=C/C=C/C=C/[C@H](O)C/C=C\C/C=C\CCCCCCCCCCCCCCC(=O)O [ELV-N-34]	did not yield PRC degeneration	restoration of RPE morphology	protection of PRC	blunt these events and elicit protection to both cells	reverted these effects
